Biological target: Beta-1 adrenergic receptor (Canis familiaris)
Test: In vitro Beta-1 adrenergic receptor affinity in partially purified membrane fractions from canine cardiac tissue using […] (4.5 nM)

Compound | IC50 [µM]
CN(c1ccc(OCC(O)CNCCOc2ccc(-n3ccnc3)cc2)cc1)S(C)(=O)=O (configuration not stated) | 21
Cc1nccn1-c1ccc(OCCNCC(O)COc2ccc(N(C)S(C)(=O)=O)cc2)cc1 (configuration not stated) | 18
